# Tests used:
# Hepatocyte stability = assay type: in vitro ADME; conditions: human hepatocytes; for stability in the human hepatocyte assay versus the corresponding pyrrolidinone comparator compound: qualitative comparison
# Method: General. Metabolic stability assays in hepatocytes are conducted using cryopreserved pooled female CD-1 mouse, male Sprague-Dawley rat, male beagle dog, male cynomolgus monkey, and mixed male and female human hepatocytes (CellzDirect). Vials of hepatocytes are thawed rapidly in a water bath set at 37° C. and then are diluted with Dulbecco's modified Eagle's medium (DMEM), pH 7.4. Cells are isolated by centrifugation, pooled, and resuspended in DMEM at 1.0 million viable cells/ml. Membrane integrity of the cells is assessed by trypan blue exclusion. The test compound is dissolved in dimethyl sulfoxide at a final concentration of 10 mM. This test compound stock is diluted further to 2 μM in DMEM (125 μl) before the addition of an equal volume of the 10^6 cells/ml cell suspension. The test compound (final incubation concentration of 1.0 μM with 0.1% dimethyl sulfoxide) and cells (final concentration of 0.5×10^6 cells/ml) are incubated at 37° C. in a 95% air/5% CO2 atmosphere for 3 h. Aliquots (50 μl) are removed at 0, 1, 2, and 3 hours and added to termination mixtures (100 μl) containing acetonitrile and an internal standard. The samples are then centrifuged for 10 min at 2000 g. The supernatant (90 μl) is removed, combined with 180 μl of water, and analyzed by LC-MS/MS.
# Metabolic stability of the test compounds were evaluated also in human hepatocytes, following protocols described in Hallifax, et al. Drug Metabol. Disposition, 2005, 33:1852-1858.
# [1] = system: p52 (NF-kB2) nuclear translocation in HeLa cells; experiment: p52 HeLa nuclear translocation assay (anti-lymphotoxin beta receptor antibody stimulated); assay type: cell-based; conditions: Homo sapiens, 100 ng/mL anti-lymphotoxin beta receptor antibody
# Method: (§1) (3) A third set of cell assays are used to define the selectivity of NIK inhibitors toward inhibition of classical vs. non-classical NF-kB signaling and rely on quantification of the nuclear translocation of p52 (NF-kB2) and REL-A (p65) using high content cellular imaging. For the p52 (non-classical NF-kB signaling) nuclear translocation assay, HeLa cells are treated with different concentrations of compounds (0.2% DMSO final) in medium containing 10% fetal bovine serum and then stimulated with 100 ng/mL of an anti-lymphotoxin beta receptor antibody (R&D Systems) for 5 hours. In the REL-A nuclear translocation assay, HeLa cells are incubated with compounds (0.2% DMSO final) for 4.5 hours in medium containing 10% fetal bovine serum before stimulating them with 10 ng/mL tumor necrosis factor (TNF)-α (R&D Systems) for 30 minutes. Cells are fixed with 4% paraformaldehyde, permeabilized by adding 0.1% Triton X-100 in phosphate buffered saline, and then are incubated with either 2 μg/mL anti-p52 antibody (Millipore) or 400 ng/mL anti-REL-A (p65) antibody (Santa Cruz Biotechnology). Finally, the cells are incubated with an Alexa488-labeled secondary antibody (Invitrogen) and DRAQ5 DNA stain (Biostatus). Imaging is carried out using an Opera reader (Perkin Elmer) and data are analyzed with the aid of Acapella software (Perkin Elmer). The p52 or REL-A translocation into the nucleus is quantified by the ratio of the nuclear to cytoplasmic signal intensity. […] The test compounds have the corresponding inhibitory values (IC50) for NIK REL-A (p65) and p52 Translocation Assays as set forth in Table B2.
# [2] = system: REL-A (p65) nuclear translocation in HeLa cells; experiment: REL-A HeLa nuclear translocation assay (TNF-α stimulated, high content imaging); assay type: cell-based; conditions: Homo sapiens, 10 ng/mL TNF-α
# Method: as §1
# [3] = Liver microsome stability; assay type: in vitro ADME; conditions: for HLM CL (human liver microsome clearance): human liver microsomes; for stability in human liver microsomes versus the corresponding pyrrolidinone comparator compound: qualitative comparison
# Method: Metabolic stability assays in liver microsomes are conducted with pooled female CD-1 mouse, male Sprague-Dawley rat, male beagle dog, male cynomolgus monkey, and mixed male and female human liver microsomal incubations. The general assay conditions are as follows. Incubation mixtures consisted of liver microsomes (0.5 mg of microsomal protein/ml) and the test compound (1.0 μM) with or without NADPH (1.0 mM) in the potassium phosphate buffer (100 mM; pH 7.4) with a final incubation volume of 0.25 ml. Reactions are initiated by the addition of NADPH or buffer and shaken in a water bath open to the air at 37° C. At times 0, 20, 40, and 60 min, aliquots (50 μl) are removed and added to termination mixtures (100 μl) containing acetonitrile and an internal standard. The samples are then centrifuged for 10 min at 2000 g. The supernatant (90 μl) is removed, combined with 180 μl of water, and analyzed by LC-MS/MS.
# Metabolic stability of the test compounds were evaluated in human liver microsomes following known protocols described in Halladay, et al. Drug Metabol. Lett. 2007, 1:67-72.
# [4] = target: nuclear factor-kappa B (NF-kB)-inducing kinase (NIK) (Homo sapiens (Human), UniProt Q99558); experiment: NIK enzyme inhibition assay (Transcreener ADP fluorescence polarization); assay type: biochemical; conditions: for Ki: purified NIK 0.5 nM, 10 μM ATP, Morrison equation, read-out: NIK ADP-FP Ki; for NIK enzyme inhibition, potency in words relative to the other stereoisomers: stereoisomers separated by chiral SFC, qualitative
# Method: The ability of the nuclear factor-kappa B (NF-kB)-inducing kinase (NIK) to catalyze the hydrolysis of adenosine-5′-triphosphate (ATP) was monitored using the Transcreener ADP (adenosine-5′-diphosphate) assay (BellBrook Labs). […] Reactions were quenched by the addition of 20 mM 2,2′,2″,2′″-(ethane-1,2-diyldinitrilo)tetraacetic acid and 0.01% Brij 35. The tracer bound to the antibody was displaced by the ADP generated during the NIK reaction, which causes a decrease in fluorescence polarization that was measured by laser excitation at 633 nm with a Fluorescence Correlation Spectroscopy Plus reader (Evotec AG). Equilibrium dissociation constant (Ki) values for NIK inhibitors are calculated from plots of activity vs. inhibitor concentration using Morrison's quadratic equation that accounts for the potential of tight binding, and by also applying the conversion factor that accounted for competitive inhibition and the concentration of substrate used in the assay relative to its Michaelis constant (Km).
# [5] = system: REL-A (p65) nuclear translocation in HUVEC; experiment: REL-A HUVEC nuclear translocation assay (TNF-α stimulated, high content imaging); assay type: cell-based; conditions: Homo sapiens, 2 ng/mL TNF-α
# Method: (§2) (2) A second set of cell assays used primary human umbilical vein cells (HUVEC) sourced from Lonza to define the selectivity of NIK inhibitors toward inhibition of classical vs. non-classical NF-kB signaling using high content cellular imaging. For the p52 (non-classical NF-kB signaling) nuclear translocation assay, HUVEC were treated with different concentrations of compounds (0.2% DMSO final) in EBM-2 medium (LONZA) containing 2% fetal bovine serum and then stimulated with 300 ng/mL of an anti-lymphotoxin beta receptor antibody (R&D Systems) for 4.5 hours. In the REL-A nuclear translocation assay, HUVEC were incubated with compounds (0.2% DMSO final) for 4 hours 50 minutes in EBM-2 medium containing 2% fetal bovine serum before stimulating them with 2 ng/mL tumor necrosis factor (TNF)-α (R&D Systems) for 10 minutes. Cells were fixed with 4% paraformaldehyde, permeabilized by adding 0.1% Triton X-100 in phosphate buffered saline, and then were incubated with either 2 μg/mL anti-p52 antibody (Millipore) or 400 ng/mL anti-REL-A (p65) antibody (Santa Cruz Biotechnology). Finally, the cells were incubated with an Alexa488-labeled secondary antibody (Invitrogen) and DRAQ5 DNA stain (Biostatus). Imaging was carried out using an Opera reader (Perkin Elmer) and data were analyzed with the aid of Acapella software (Perkin Elmer). The p52 or REL-A translocation into the nucleus was quantified by the ratio of the nuclear to cytoplasmic signal intensity.
# [6] = system: p52 (non-classical NF-kB signaling) nuclear translocation in HUVEC; experiment: p52 HUVEC nuclear translocation assay (anti-lymphotoxin beta receptor antibody stimulated); assay type: cell-based; conditions: Homo sapiens, 300 ng/mL anti-lymphotoxin beta receptor antibody
# Method: as §2
# Chain of nuclear factor-kappa B (NF-kB)-inducing kinase (NIK) (Q99558 whole entry): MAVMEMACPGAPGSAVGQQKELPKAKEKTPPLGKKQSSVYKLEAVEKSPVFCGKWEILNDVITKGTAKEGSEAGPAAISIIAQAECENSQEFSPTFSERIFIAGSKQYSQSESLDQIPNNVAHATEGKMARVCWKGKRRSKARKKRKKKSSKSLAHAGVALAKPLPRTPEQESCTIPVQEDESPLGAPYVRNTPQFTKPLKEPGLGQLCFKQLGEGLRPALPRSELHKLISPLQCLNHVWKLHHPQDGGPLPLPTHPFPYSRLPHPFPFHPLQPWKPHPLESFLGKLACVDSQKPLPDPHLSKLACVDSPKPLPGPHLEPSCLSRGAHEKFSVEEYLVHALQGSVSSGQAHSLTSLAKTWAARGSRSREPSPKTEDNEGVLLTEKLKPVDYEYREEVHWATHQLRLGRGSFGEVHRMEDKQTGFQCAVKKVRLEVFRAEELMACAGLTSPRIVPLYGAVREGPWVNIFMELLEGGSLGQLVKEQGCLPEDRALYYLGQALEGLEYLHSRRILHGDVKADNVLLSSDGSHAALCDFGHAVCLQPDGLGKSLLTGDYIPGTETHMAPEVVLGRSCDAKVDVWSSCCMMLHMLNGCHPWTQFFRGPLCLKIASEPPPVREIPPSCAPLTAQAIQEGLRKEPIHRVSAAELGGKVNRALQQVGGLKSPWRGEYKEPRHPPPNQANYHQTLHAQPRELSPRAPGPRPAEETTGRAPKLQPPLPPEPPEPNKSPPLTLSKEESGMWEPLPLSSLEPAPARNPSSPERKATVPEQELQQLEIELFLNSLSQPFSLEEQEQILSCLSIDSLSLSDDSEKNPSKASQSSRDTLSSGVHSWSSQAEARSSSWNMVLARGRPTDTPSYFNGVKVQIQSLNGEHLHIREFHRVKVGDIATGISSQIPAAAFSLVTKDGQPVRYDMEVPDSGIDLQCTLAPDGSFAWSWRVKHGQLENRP
Compound,Hep CL (human hepatocyte clearance) (Hepatocyte stability) [mL/min/kg],IC50 [1] [nM],IC50 [2] [nM],HLM CL (human liver microsome clearance) [3] [mL/min/kg],Ki [4] [nM],IC50 [5] [nM],IC50 [6] [nM],"NIK enzyme inhibition, potency in words relative to the other stereoisomers [4]",stability in the human hepatocyte assay versus the corresponding pyrrolidinone comparator compound (Hepatocyte stability),stability in human liver microsomes versus the corresponding pyrrolidinone comparator compound [3]
"CN1CC[C@@](O)(C#Cc2cccc(-c3nc(C(N)=O)c(N)s3)c2)C1=O [Compound C-6, reference compound]",1.1,79.1,> 5000,5.1,0.13,,,,,
"CN1C(=O)[C@](O)(C#Cc2cccc(-n3nc(C(N)=O)c4cccnc43)c2)[C@@H]2C[C@@H]21 [Compound 2, 1-(3-(((1S,4R,5R)-4-hydroxy-2-methyl-3-oxo-2-azabicyclo[3.1.0]hexan-4-yl)ethynyl)phenyl)-1H-pyrazolo[3,4-b]pyridine-3-carboxamide]",13,,,7.7,4.3,> 5000,280,second most potent NIK enzyme inhibitor among the 4 stereoisomers,,
"CN1C(=O)[C@](O)(C#Cc2cccc(-n3nc(C(N)=O)c4cccnc43)c2)[C@H]2C[C@H]21 [Compound 1, 1-(3-(((1R,4R,5S)-4-hydroxy-2-methyl-3-oxo-2-azabicyclo[3.1.0]hexan-4-yl)ethynyl)phenyl)-1H-pyrazolo[3,4-b]pyridine-3-carboxamide]",0.8,,,5.8,0.88,> 5000,55,most potent NIK enzyme inhibitor among the 4 stereoisomers,better stability,better stability
"COc1ccn2c(C(N)=O)nc(-c3cccc(C#C[C@]4(O)CCN(C)C4=O)c3)c2c1 [Compound C-4, reference compound]",9.9,6.6,> 1000,15,,> 5000,,,,
CN1CC[C@@](O)(C#Cc2cccc(-c3nc(C(N)=O)n4ccccc34)c2)C1=O [Compound C-3],,29.8,> 20000,,,> 5000,,,,
"CN1C(=O)[C@](O)(C#Cc2cccc(-c3nc(C(N)=O)c4ccccn34)c2)[C@H]2C[C@H]21 [Compound 5, 3-(3-(((1R,4R,5S)-4-hydroxy-2-methyl-3-oxo-2-azabicyclo[3.1.0]hexan-4-yl)ethynyl)phenyl)imidazo[1,5-a]pyridine-1-carboxamide]",1.6,,,3.5,4.7,> 5000,3000,most potent NIK enzyme inhibitor among the 4 stereoisomers,better stability,better stability
CN1C(=O)[C@](O)(C#Cc2cccc(-c3nc(C(N)=O)n4ccccc34)c2)[C@H]2C[C@H]21 [Compound 3],9.0,,,11,,> 5000,25,,better stability,better stability

# — patent publication US10550117B2, “2-azabicyclo[3.1.0]hexan-3-one derivatives and methods of use” (Genentech, Inc., priority 2016, dated 2020)
